US6821980B1, “Substituted 5-benzyl-2,4-diaminopyrimidines” (Basilea Pharmaceutica AG, priority 1999, dated 2004)
Values after ≈ are worked out from the molar mass of the structure shown. Read-outs that look alike come from different tables or passages of the source.

Key:
[1] = biological target: purified DHFR of strain 157/4696 of Staphylococcus aureus (Staphylococcus aureus, UniProt P13955); assay: biochemical
[2] = tested on: Streptococcus pneumoniae 1/1; assay: MIC against Streptococcus pneumoniae 1/1; type: cell-based; details: Streptococcus pneumoniae 1/1, trimethoprim- and penicillin-resistant, serotype 6, clinical isolate; for MIC: read-out: MIC Sp1/1
[3] = biological target: T1, purified DHFR of strain Sp1/1 of Streptococcus pneumoniae (Streptococcus pneumoniae serotype 4, UniProt Q54801); type: biochemical; details: IC50 against purified DHFR of strain Sp1/1
T1 sequence (Q54801 1-168 I100L): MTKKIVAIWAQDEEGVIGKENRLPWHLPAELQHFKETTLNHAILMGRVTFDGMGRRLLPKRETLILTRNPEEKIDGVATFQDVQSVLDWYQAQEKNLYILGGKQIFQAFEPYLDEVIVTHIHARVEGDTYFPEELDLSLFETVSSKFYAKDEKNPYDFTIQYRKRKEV

[4] = tested on: Staphylococcus aureus 101; assay: MIC against Staphylococcus aureus 101; type: cell-based; details: Staphylococcus aureus 101, MRSA- and trimethoprim-resistant, clinical isolate; for MIC: read-out: MIC Sa101

Chain of purified DHFR of strain 157/4696 of Staphylococcus aureus (P13955 whole entry): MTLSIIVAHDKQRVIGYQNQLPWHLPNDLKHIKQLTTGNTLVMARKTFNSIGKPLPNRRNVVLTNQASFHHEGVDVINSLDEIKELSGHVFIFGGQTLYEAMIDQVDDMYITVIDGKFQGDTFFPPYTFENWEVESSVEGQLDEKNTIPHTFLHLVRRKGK

| SMILES | IC50 [1] | MIC ([2]; Table 1) | IC50 ([3]; Table 1) | MIC ([4]; Table 1) | MIC ([2]; Table 2) | IC50 ([3]; Table 2) | MIC ([4]; Table 2) | IC50 ([1]; Table 2, IC50 against purified DHFR of strain 157/4696 (highly trimethoprim-resistant; clinical isolate), read-out: DHFR Sa1) | MIC Sp1/1 ([2]; Table 2) | MIC Sa101 ([4]; Table 2) |
| --- | --- | --- | --- | --- | --- | --- | --- | --- | --- | --- |
| CCOc1cc(Cc2cnc(N)nc2N)cc(OS(=O)(=O)C2CCC2)c1-c1ccc(N)c(C)c1 [Example 40c, Cyclobutane-sulphonic acid 4′-amino-4-(2,4-diamino-pyrimidin-5-ymethyl)-6-ethoxy-3′-methyl-biphenyl-2-yl ester] | 0.037 µM | 0.5 mg/L (≈ 1.03 µM) | 0.019 µM | 1 mg/L (≈ 2.07 µM) | – | – | – | – | – | – |
| CCOc1cc(Cc2cnc(N)nc2N)cc(OS(=O)(=O)C2CCOCC2)c1-c1ccc(N)c(C)c1 [Example 41-a, Tetrahydropyran-4-sulphonic acid 4′-amino-4-(2,4-diamino-pyrimidin-5-ylmethyl)-6-ethoxy-3′-methyl-biphenyl-2-yl ester] | 0.055 µM | – | – | – | 0.5 mg/L (≈ 0.973 µM) | 0.0003 µM | 2 mg/L (≈ 3.89 µM) | – | – | – |
| CCOc1cc(Cc2cnc(N)nc2N)cc(OS(=O)(=O)C2CCOCC2)c1-c1ccc(N)c(F)c1 [Example 41-b, Tetrahydronyran-4-sulphonic acid 4′-amino-4-(2,4-diamino-pyrimidin-5-ylmethyl)-6-ethoxy-3′-fluoro-biphenyl-2-yl ester] | 0.25 µM | – | – | – | 0.5 mg/L (≈ 0.966 µM) | 0.0062 µM | 4 mg/L (≈ 7.73 µM) | – | – | – |
| CCOc1cc(Cc2cnc(N)nc2N)cc(OS(=O)(=O)C2CCOCC2)c1-c1cccc(N)c1 [Example 41-c, Tetrahydropyran-4-sulphonic acid 3′-amino-4-(2,4-diamino-pyrimidin-5-ylmethyl)-6-ethoxy-biphenyl-2-yl ester] | 0.043 µM | – | – | – | 0.5 mg/L (≈ 1 µM) | 0.0042 µM | 4 mg/L (≈ 8.01 µM) | – | – | – |
| CCOc1cc(Cc2cnc(N)nc2N)cc(OS(=O)(=O)CC2CCCO2)c1-c1cccc(N)c1 (stereo not shown) [Example 42-a, Tetrahydrofuran-2-yl-methanesulphonic acid 3′-amino-4-(2,4-diamino-pyrimidin-5-ylmethyl)-6-ethoxy-biphenyl-2-yl ester] | 0.25 µM | – | – | – | 2 mg/L (≈ 4 µM) | 0.0057 µM | 8 mg/L (≈ 16 µM) | – | – | – |
| CCOc1cc(Cc2cnc(N)nc2N)cc(OS(=O)(=O)CC2CCCO2)c1-c1ccc(N)c(F)c1 (stereo not shown) [Example 42-b, Tetrahydrofuran-2-yl-methanesulphonic acid 4′-amino-4-(2,4-diamino-primidin-5-ylmethyl)-6-ethoxy-3′-fluoro-biphenAl-2-yl ester] | 0.51 µM | – | – | – | 2 mg/L (≈ 3.86 µM) | 0.0076 µM | 8 mg/L (≈ 15.5 µM) | – | – | – |
| CCOc1cc(Cc2cnc(N)nc2N)cc(OS(=O)(=O)CC2CCCO2)c1-c1ccc(N)c(C)c1 (stereo not shown) [Example 42-c, Tetrahydrofuran-2-yl-methanesulphonic acid 4′-amino-4-(2,4-diamino-pyrimidin-5-ylmethyl)-6-ethoxy-3′-methyl-biphenyl-2-yl ester] | 0.3 µM | – | – | – | 1 mg/L (≈ 1.95 µM) | 0.0063 µM | 8 mg/L (≈ 15.6 µM) | – | – | – |
| CCOc1cc(Cc2cnc(N)nc2N)cc(OS(=O)(=O)N(C)C)c1-c1ccc(SC)cc1 [Example 43-a, Dimethylsulphamic acid 4-(2,4-diamino-pyrimidin-5-ylmethyl)-6-ethoxy-4′-methylsulphanyl-biphenyl-2-yl ester] | 0.32 µM | – | – | – | 4 mg/L (≈ 8.17 µM) | 0.0067 µM | 2 mg/L (≈ 4.08 µM) | – | – | – |
| CCOc1cc(Cc2cnc(N)nc2N)cc(OS(=O)(=O)N(C)C)c1-c1ccccc1 [Example 43-b, Dimethylsulphamic acid 4-(2,4-diamino-pyrimidin-5-ylmethyl)-6-ethoxy-biphenyl-2-yl ester] | 0.26 µM | – | – | – | 1 mg/L (≈ 2.25 µM) | 0.0098 µM | 1 mg/L (≈ 2.25 µM) | – | – | – |
| CCOc1cc(Cc2cnc(N)nc2N)cc(OS(=O)(=O)N(C)C)c1-c1ccc(N)c(C#N)c1 [Example 43-c, Dimethylsulphamic acid 4′-amino-3′-cyano-4-(2,4-diamino-gvrimidin-5-ylmethyl)-6-ethoxy-biphenyl-2-yl ester] | 0.16 µM | – | – | – | 2 mg/L (≈ 4.14 µM) | 0.024 µM | 2 mg/L (≈ 4.14 µM) | – | – | – |
| CCOc1cc(Cc2cnc(N)nc2N)cc(OS(=O)(=O)N(C)C)c1-c1ccc2[nH]ccc2c1 [Example 43-d, Dimethylsulphamic acid 5-(2,4-diamino-pyrimidin-5-ylmethyl)-3-ethoxy-2-(1H-indol-5-yl)-phenyl ester] | 0.18 µM | – | – | – | 1 mg/L (≈ 2.07 µM) | 0.042 µM | 1 mg/L (≈ 2.07 µM) | – | – | – |
| CCOc1cc(Cc2cnc(N)nc2N)cc(OCC)c1-c1cccc(NS(C)(=O)=O)c1 [Example 44-, N-[4′-(2,4-Diamino-pyrimidin-5-ylmethyl)-2′,6′-diethoxy-biphenyl-3-yl]-methanesulphonamide] | 0.68 µM | – | – | – | 2 mg/L (≈ 4.37 µM) | 0.018 µM | 8 mg/L (≈ 17.5 µM) | – | – | – |
| CCOc1cc(Cc2cnc(N)nc2N)cc(OCC)c1-c1ccc(OS(C)(=O)=O)cc1 [Example 45-, Methanesulphonic acid 4′-(2,4-diamino-pyrimidin-5-ylmethyl)-2′,6′-diethoxy-biphenyl-4-yl ester] | 2.4 µM | – | – | – | 4 mg/L (≈ 8.72 µM) | 0.13 µM | 8 mg/L (≈ 17.4 µM) | – | – | – |
| CCOc1cc(Cc2cnc(N)nc2N)cc(OCC)c1-c1ccc(OCC(N)=O)cc1 [Example 46-, 2-[4′-(2,4-Diamino-pylimidin-5-ylmethyl)-2′,6′-diethoxy-biphenyl-4-yloxy]-acetamide] | 0.75 µM | – | – | – | 2 mg/L (≈ 4.57 µM) | 0.055 µM | 8 mg/L (≈ 18.3 µM) | – | – | – |
| CCOc1cc(Cc2cnc(N)nc2N)cc(OCC2(CCC#N)CC2)c1-c1ccc(O)cc1 [Example 47-, 3-{1-[4-(2,4-Diamino-pyrimidin-5-yjmethyl)-6-ethoxy-4′-hydroxy-biphenyl-2-loxymethyl]-cycloprropyl}-propionitrile] | – | – | – | – | – | 0.01 µM | – | 1.2 µM | 2 mg/L (≈ 4.35 µM) | 8 mg/L (≈ 17.4 µM) |
| CCOc1cc(Cc2cnc(N)nc2N)cc(OCC(C)(C)CCC#N)c1-c1ccc(O)cc1 [Example 48-, 5-[4-(2,4-Diamino-pyrimidin-5-ylmethyl) 6-ethoy-4′-hydro-biPhenyl-2-xyloxy]-4,4-dimethyl-pentanenitrile] | 0.75 µM | – | – | – | 2 mg/L (≈ 4.33 µM) | 0.03 µM | 4 mg/L (≈ 8.67 µM) | – | – | – |
| CCOc1cc(Cc2cnc(N)nc2N)cc(OCC)c1-c1ccc2c(c1)CCCN2 [Example 49-, 5-[3,5-Diethoxy-4-(1,2,3,4-tetrahydro-quinolin-6-yl)-benzyl]-pyrimidine-2,4-diamine] | 0.82 µM | – | – | – | 8 mg/L (≈ 19.1 µM) | 0.046 µM | 4 mg/L (≈ 9.53 µM) | – | – | – |
| CCOc1cc(Cc2cnc(N)nc2N)cc(OCC)c1-c1cccc(OCCOC)c1 [Example 50-, 5-[2,6-Diethoxy-3′-(2-methoxy-ethoxy)-biphenyl-4-ylmethyl]-pyrimidine-2,4-diamine] | 10 µM | – | – | – | 4 mg/L (≈ 9.12 µM) | 0.032 µM | 8 mg/L (≈ 18.2 µM) | – | – | – |
| CCCOc1cc(Cc2cnc(N)nc2N)cc(OCCC)c1-c1cccc(N)c1 [Example 51-, 5-(3′-Amino-2,6-di-n-propoxy-biphenyl-4-ylmethyl)-pyrimidine-2,4-diamine] | 8.5 µM | – | – | – | 2 mg/L (≈ 4.91 µM) | 0.043 µM | 8 mg/L (≈ 19.6 µM) | – | – | – |
| CCCOc1cc(Cc2cnc(N)nc2N)cc(OCCC)c1-c1cccc(O)c1 [Example 52-, 4′-(2,4-Diamino-pyrimidin-5-ylmethyl)-2′,6′-digropobiphenyl-3-ol] | 5.8 µM | – | – | – | 1 mg/L (≈ 2.45 µM) | 0.02 µM | 8 mg/L (≈ 19.6 µM) | – | – | – |
| CCCOc1cc(Cc2cnc(N)nc2N)cc(OCC)c1-c1cccc(O)c1 [Example 53-, 4′-(2,4-Diamino-pyrimidin-5-ylmethyl)-6′-ethoxy-2′-n-propoxy-biphenyl-3-ol] | 1.8 µM | – | – | – | 4 mg/L (≈ 10.1 µM) | 0.028 µM | 8 mg/L (≈ 20.3 µM) | – | – | – |
| CCOc1cc(Cc2cnc(N)nc2N)cc(OCC2CC2)c1-c1cccc(O)c1 [Example 54-, 2′-Cyclopropanomethoxy-4′-(2,4-diamino-pyrimidin-5-ylmethyl)-6′-ethoxy-biphenyl-3-ol] | 3.1 µM | – | – | – | 2 mg/L (≈ 4.92 µM) | 0.019 µM | 8 mg/L (≈ 19.7 µM) | – | – | – |
| CCOc1cc(Cc2cnc(N)nc2N)cc(OCC2CC2)c1-c1ccc(OCCO)cc1 [Example 55-, 2-[2′-Cyclopropylmethoxy-4′-(2,4-diamino-pyrimidin-5-ylmethyl)-6′-ethoxy-biphenyl-4-yloxy]-ethanol] | 1.7 µM | – | – | – | 4 mg/L (≈ 8.88 µM) | 0.048 µM | 8 mg/L (≈ 17.8 µM) | – | – | – |
| CCOc1cc(Cc2cnc(N)nc2N)cc(OCC2CC2)c1-c1ccc(OS(C)(=O)=O)cc1 [Example 57-, Methanesulphonic acid 2′-cylopropylmethoxy-4′-(2,4-diamino-pyrimidin-5-ylmethyl)-6′-ethoxy-biphenyl-4-yl ester] | 3.6 µM | – | – | – | 4 mg/L (≈ 8.25 µM) | 0.03 µM | 8 mg/L (≈ 16.5 µM) | – | – | – |
| CCOc1cc(Cc2cnc(N)nc2N)cc(OS(=O)(=O)C(C)C)c1-c1ccc(OC(C)=O)cc1 [Example 58-, 4′-(2,4-Diamino-pyrimidin-5-ylmethyl)-6′-ethoxy-2′-(propane-2-sulphonyloxy)-biphenyl-4-yl acetate] | 0.055 µM | – | – | – | 2 mg/L | 0.032 µM | 2 mg/L | – | – | – |
